Measured values taken from US7544694B2, “Substituted diaza-spiro-[5.5]-undecane derivatives and their use as neurokinin antagonists” (Janssen Pharmaceutica N.V., priority 2004, dated 2009).
Where a name gives a salt, the structure may show the parent alone.

How the values were obtained:
NK1 = NK1 (Homo sapiens, UniProt P25103); assay: Signal transduction (ST), intracellular Ca++ (FLIPR), functional NK1 antagonistic activity; format: cell-based; details: antagonist, read-out: NK1 pIC50 (converted)
NK1, sequence (P25103 whole entry): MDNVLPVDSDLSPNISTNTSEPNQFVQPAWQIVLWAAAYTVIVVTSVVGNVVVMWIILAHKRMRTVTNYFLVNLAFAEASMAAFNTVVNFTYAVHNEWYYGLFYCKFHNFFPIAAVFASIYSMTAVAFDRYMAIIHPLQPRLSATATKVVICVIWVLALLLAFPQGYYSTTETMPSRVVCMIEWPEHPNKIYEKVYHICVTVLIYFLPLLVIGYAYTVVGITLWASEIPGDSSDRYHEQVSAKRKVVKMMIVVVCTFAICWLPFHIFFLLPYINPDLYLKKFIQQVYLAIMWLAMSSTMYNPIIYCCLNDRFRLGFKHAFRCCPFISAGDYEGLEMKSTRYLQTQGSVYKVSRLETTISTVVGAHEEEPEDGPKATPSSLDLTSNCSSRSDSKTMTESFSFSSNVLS
Procedure, shortened: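 Confluent cells were loaded with 2 μM Fluo3 for 1 h at 37° C, then washed into Krebs buffer pH 7.4 with 1.25 mM CaCl2 and 2.5 mM probenecid. Antagonists were preincubated 20 min at RT before agonist addition. Peak Ca++ transients were read by FLIPR, with EC50 or IC50 from sigmoidal non-linear regression.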

NK2 = target: T1, NK2 (Homo sapiens, UniProt P21452); assay: Signal transduction (ST), intracellular Ca++ (FLIPR), NK2; format: cell-based; details: antagonist, read-out: NK2 pIC50 (converted)
T1 sequence (P21452 1-398): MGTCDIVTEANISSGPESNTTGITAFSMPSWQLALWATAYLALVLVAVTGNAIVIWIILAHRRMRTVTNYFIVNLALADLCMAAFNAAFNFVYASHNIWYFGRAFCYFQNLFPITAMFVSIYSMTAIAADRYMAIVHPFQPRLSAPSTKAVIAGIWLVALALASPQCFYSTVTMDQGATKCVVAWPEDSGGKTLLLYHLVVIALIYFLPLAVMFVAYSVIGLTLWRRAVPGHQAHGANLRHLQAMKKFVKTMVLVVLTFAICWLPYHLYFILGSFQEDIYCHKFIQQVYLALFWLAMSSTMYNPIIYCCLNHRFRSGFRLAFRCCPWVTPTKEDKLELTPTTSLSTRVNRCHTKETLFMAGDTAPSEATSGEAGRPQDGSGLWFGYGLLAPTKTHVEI

NK3 = target: T2, NK3 (Homo sapiens, UniProt P29371); assay: Signal transduction (ST), intracellular Ca++ (FLIPR), NK3; format: cell-based; details: antagonist, read-out: NK3 pIC50 (converted)
T2 sequence (P29371 1-465): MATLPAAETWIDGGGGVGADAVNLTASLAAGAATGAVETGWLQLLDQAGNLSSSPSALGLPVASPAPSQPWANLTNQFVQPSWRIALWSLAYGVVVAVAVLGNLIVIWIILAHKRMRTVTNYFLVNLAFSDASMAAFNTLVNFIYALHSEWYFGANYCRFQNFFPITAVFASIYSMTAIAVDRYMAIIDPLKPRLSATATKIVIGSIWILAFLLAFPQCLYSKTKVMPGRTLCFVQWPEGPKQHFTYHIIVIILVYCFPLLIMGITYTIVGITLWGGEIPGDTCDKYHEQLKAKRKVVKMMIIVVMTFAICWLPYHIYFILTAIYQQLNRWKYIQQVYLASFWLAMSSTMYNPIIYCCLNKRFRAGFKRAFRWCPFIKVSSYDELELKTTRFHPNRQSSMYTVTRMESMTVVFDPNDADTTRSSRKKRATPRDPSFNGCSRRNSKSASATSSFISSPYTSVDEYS

| Structure (SMILES) | melting point [°C] | IC50 (NK1) [nM] | IC50 (NK2) [µM] | IC50 (NK3) [µM] |
| --- | --- | --- | --- | --- |
| O=C(c1cc(C(F)(F)F)cc(C(F)(F)F)c1)N1CCC(N2CCC3(CC2)CCN(S(=O)(=O)c2cccs2)CC3)CC1Cc1ccccc1 (stereo not shown) (as salt: oxalate) [Compound 92] | 132 |  |  |  |
| CC(C)(C)OC(=O)N1CCC2(CC1)CCN(C1CCN(C(=O)c3cc(C(F)(F)F)cc(C(F)(F)F)c3)C(Cc3ccc(Cl)c(Cl)c3)C1)CC2 (stereo not shown) [Compound 130] | 80 |  |  |  |
| O=C(C1CC1)N1CCC2(CC1)CCN(C1CCN(C(=O)c3cc(C(F)(F)F)cc(C(F)(F)F)c3)C(Cc3ccccc3)C1)CC2 (stereo not shown) [Compound 3] | 160 | 37.2 | 1.1 | 1.51 |
| O=C(c1cc(C(F)(F)F)cc(C(F)(F)F)c1)N1CCC(N2CCC3(CCN(Cc4ccccc4)CC3)CC2)CC1Cc1ccccc1 (stereo not shown) (as salt: hydrochloric acid salt) [Compound 5] | 183 |  |  |  |
| COc1ccc(OC)c(S(=O)(=O)N2CCC3(CCN([C@H]4CCN(C(=O)c5cc(C(F)(F)F)cc(C(F)(F)F)c5)[C@H](Cc5ccccc5)C4)CC3)CC2)c1 [Compound 123] |  | 70.8 | ~4.07 | > 10 |
| O=C1CCC(C(=O)N2CCC3(CC2)CCN([C@H]2CCN(C(=O)c4cc(C(F)(F)F)cc(C(F)(F)F)c4)[C@H](Cc4ccccc4)C2)CC3)=NN1 [Compound 58] |  | 64.6 | > 10 | > 10 |
| Cc1nc(S(=O)(=O)N2CCC3(CCN([C@H]4CCN(C(=O)c5cc(C(F)(F)F)cc(C(F)(F)F)c5)[C@H](Cc5ccccc5)C4)CC3)CC2)cn1C [Compound 100] |  | 12 | 1.26 | 0.331 |
| O=C(C1CC1)N1CCC2(CC1)CCN([C@H]1CCN(C(=O)c3cc(C(F)(F)F)cc(C(F)(F)F)c3)[C@H](Cc3ccc(Cl)c(Cl)c3)C1)CC2 [Compound 131] |  | 17.4 | 0.776 | 1.41 |
| CC1(C)C(C(=O)N2CCC3(CC2)CCN([C@H]2CCN(C(=O)c4cc(C(F)(F)F)cc(C(F)(F)F)c4)[C@H](Cc4ccccc4)C2)CC3)C1(C)C [Compound 16] |  | 191 | > 10 | 8.51 |
| O=C(c1ccsc1)N1CCC2(CCN(C[C@H]3CCN(C(=O)c4cc(C(F)(F)F)cc(C(F)(F)F)c4)[C@H](Cc4ccccc4)C3)CC2)CC1 [Compound 182] |  | 38 | > 10 | 9.12 |
| CC(C)(C)OC(=O)N1CCCC1C(=O)N1CCC2(CCN(C[C@H]3CCN(C(=O)c4cc(C(F)(F)F)cc(C(F)(F)F)c4)[C@H](Cc4ccccc4)C3)CC2)CC1 (stereo partly shown) [Compound 181] |  | 33.9 | 7.08 | > 10 |
| Cc1ccsc1C(=O)N1CCC2(CC1)CCN([C@H]1CCN(C(=O)c3cc(C(F)(F)F)cc(C(F)(F)F)c3)[C@H](Cc3ccccc3)C1)CC2 [Compound 32] |  | 75.9 | 3.16 | 6.61 |
| O=C(c1ccc(=O)[nH]c1)N1CCC2(CC1)CCN([C@H]1CCN(C(=O)c3cc(C(F)(F)F)cc(C(F)(F)F)c3)[C@H](Cc3ccccc3)C1)CC2 [Compound 57] |  | 151 | 1.91 | > 10 |
| Cc1noc(C)c1CN1CCC2(CCN([C@H]3CCN(C(=O)c4cc(C(F)(F)F)cc(C(F)(F)F)c4)[C@H](Cc4ccccc4)C3)CC2)CC1=O [Compound 200] |  | 23.4 | 1.45 | 6.92 |
| O=C1CC2(CCN1CC1CCC1)CCN([C@@H]1CCN(C(=O)c3cc(C(F)(F)F)cc(C(F)(F)F)c3)[C@H](Cc3ccccc3)C1)CC2 [Compound 197] |  | 191 | 2.88 | 6.46 |
| O=C(CC1C=CCC1)N1CCC2(CC1)CCN([C@H]1CCN(C(=O)c3cc(C(F)(F)F)cc(C(F)(F)F)c3)[C@H](Cc3ccccc3)C1)CC2 (stereo partly shown) [Compound 70] |  | 81.3 | 5.37 | > 10 |
| O=C1CC2(CCN1Cc1ccoc1)CCN([C@@H]1CCN(C(=O)c3cc(C(F)(F)F)cc(C(F)(F)F)c3)[C@H](Cc3ccccc3)C1)CC2 [Compound 198] |  | 339 | 4.79 | > 10 |
| O=C(C=Cc1ccco1)N1CCC2(CC1)CCN([C@H]1CCN(C(=O)c3cc(C(F)(F)F)cc(C(F)(F)F)c3)[C@H](Cc3ccccc3)C1)CC2 [Compound 84] |  | 282 | 7.24 | > 10 |
| Cc1ccc(S(=O)(=O)N2CCC3(CCN([C@H]4CCN(C(=O)c5cc(C(F)(F)F)cc(C(F)(F)F)c5)[C@H](Cc5ccccc5)C4)CC3)CC2)cc1 [Compound 105] |  | 105 | 2.45 | 2 |
